According to patent EP2100602A1, “Method and compositions suitable for treatment of wounds” (QuoNova Europe GmbH, priority 2008, dated 2009):

Test system: Pseudomonas aeruginosa
Assay: Porcine second degree burn wound model infected with Pseudomonas aeruginosa; flush culture (planktonic) and scrub culture (biofilm) counts
Assay type: in vivo
Settings: pig burn wounds; for reduction of counts of planktonic P. aeruginosa: ointment without SSD; for reduction of biofilm bacteria: treatment within 20 minutes of inoculation, compared to the vehicle control, SSD not printed for these labels
[1] = used within 20 minutes of wound inoculation

Cn1nc(C(C)(C)C)cc1C(=O)NNC(=O)c1ccc(Cl)s1 [Compound 1]
reduction of counts of planktonic P. aeruginosa (used on established biofilms): largest reduction
reduction of counts of planktonic P. aeruginosa [1]: largest reduction
reduction of biofilm bacteria: 2 Log
reduction of biofilm P. aeruginosa (without SSD, used within 20 minutes): 1 Log

CCCCCCCCCC(=O)CC(=O)Nc1cc(C)ns1 [Compound 2]
reduction of counts of planktonic P. aeruginosa [1]: lower counts
reduction of biofilm bacteria: 1.5 Log

CCCCCCCCCC(=O)CC(=O)N(C)c1ccc(F)cc1 [Compound 3]
reduction of counts of planktonic P. aeruginosa [1]: lower counts
